Read-outs that look alike come from different tables or passages of the source. Each block holds one molecule with its values, some of them ahead of it.
Key:
[1] = system: H3K9me2 levels in MDA-MB-231 cells; experiment: H3K9me2 In-Cell Western; format: cell-based
[2] = system: MDA-MB-231 cells; experiment: MTT cell toxicity assay, MDA-MB-231; format: cell-based; conditions: Homo sapiens, MDA-MB-231, 48 h, read-out: MTT EC50
[3] = system: H3K9me2 levels in MCF7 cells; experiment: H3K9me2 ICW assay, MCF7; format: cell-based; conditions: Homo sapiens, MCF7, 48 h, read-out: ICW IC50
[4] = system: H3K9me2 levels in PC3 cells; experiment: H3K9me2 ICW assay, PC3; format: cell-based; conditions: Homo sapiens, PC-3, 48 h, read-out: ICW IC50
[5] = system: H3K9me2 levels in 22RV1 cells; experiment: H3K9me2 ICW assay, 22RV1; format: cell-based; conditions: Homo sapiens, 22Rv1, 48 h, read-out: ICW IC50
[6] = system: H3K9me2 levels in HCT116 wt cells; experiment: H3K9me2 ICW assay, HCT116 wt; format: cell-based; conditions: Homo sapiens, HCT-116, 48 h, read-out: ICW IC50
[7] = system: HCT116 wt cells; experiment: MTT assay, HCT116 wt; format: cell-based; conditions: Homo sapiens, HCT-116, 48 h, read-out: MTT EC50
[8] = system: HCT116 p53−/− cells; experiment: MTT assay, HCT116 p53−/−; format: cell-based; conditions: Homo sapiens, HCT-116, 48 h, read-out: MTT EC50
[9] = target: T1, G9a (Homo sapiens, UniProt Q96KQ7); experiment: G9a SAHH-coupled assay; format: biochemical; conditions: versus compound 5
T1 sequence (Q96KQ7 1-1210): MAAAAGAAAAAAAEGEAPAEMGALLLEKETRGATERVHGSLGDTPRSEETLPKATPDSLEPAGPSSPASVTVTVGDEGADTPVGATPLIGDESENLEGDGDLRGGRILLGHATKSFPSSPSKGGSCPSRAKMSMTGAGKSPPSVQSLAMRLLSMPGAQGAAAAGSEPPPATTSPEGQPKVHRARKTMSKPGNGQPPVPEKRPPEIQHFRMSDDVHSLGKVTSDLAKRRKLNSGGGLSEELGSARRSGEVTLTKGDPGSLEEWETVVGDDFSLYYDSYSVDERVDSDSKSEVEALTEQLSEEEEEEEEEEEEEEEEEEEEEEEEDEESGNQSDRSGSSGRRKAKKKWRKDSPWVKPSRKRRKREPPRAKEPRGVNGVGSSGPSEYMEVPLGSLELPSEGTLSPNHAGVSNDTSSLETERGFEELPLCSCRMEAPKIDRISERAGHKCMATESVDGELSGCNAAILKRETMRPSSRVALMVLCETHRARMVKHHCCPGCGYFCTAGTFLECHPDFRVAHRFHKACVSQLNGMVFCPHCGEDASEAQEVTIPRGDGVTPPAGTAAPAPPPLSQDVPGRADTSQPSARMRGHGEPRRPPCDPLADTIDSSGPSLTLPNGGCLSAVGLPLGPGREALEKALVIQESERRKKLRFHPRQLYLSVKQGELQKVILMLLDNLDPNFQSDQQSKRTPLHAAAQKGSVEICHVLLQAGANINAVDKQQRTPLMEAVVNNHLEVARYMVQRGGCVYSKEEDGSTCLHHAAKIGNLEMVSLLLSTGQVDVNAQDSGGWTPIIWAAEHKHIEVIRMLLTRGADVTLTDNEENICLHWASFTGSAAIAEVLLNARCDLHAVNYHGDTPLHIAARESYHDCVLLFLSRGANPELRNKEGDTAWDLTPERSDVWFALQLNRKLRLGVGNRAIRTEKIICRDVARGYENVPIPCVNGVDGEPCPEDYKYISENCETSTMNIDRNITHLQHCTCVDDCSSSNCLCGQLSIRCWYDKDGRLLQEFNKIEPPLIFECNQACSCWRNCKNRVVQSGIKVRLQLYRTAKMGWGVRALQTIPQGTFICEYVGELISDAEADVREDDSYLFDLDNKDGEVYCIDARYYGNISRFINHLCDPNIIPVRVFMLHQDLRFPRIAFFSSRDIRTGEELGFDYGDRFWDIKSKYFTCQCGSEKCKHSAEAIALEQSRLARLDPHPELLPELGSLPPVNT

[10] = Homo sapiens, MDA-MB-231, 48 h, read-out: Cellular IC50 (Reduction of H3K9me2 (ICW)), Table 2, MDA-MB-231 cells, 48 h
[11] = Homo sapiens, MDA-MB-231, 48 h, read-out: Cellular IC50 (Reduction of H3K9me2 (ICW)), Table 4, MDA-MB-231 cells, 48 h
[12] = read-out: Cellular IC50 (Reduction of H3K9me2 (ICW)), Table 2, MDA-MB-231 cells, 48 h

Compound: COc1cc2c(NC3CCN(C)CC3)nc(N3CCCN(C)CC3)nc2cc1OCCCN(C)C [Compound 2]
- IC50 ([1]; Homo sapiens, MDA-MB-231, 48 h, read-out: Cellular IC50 (Reduction of H3K9me2 (ICW)), Table 1, MDA-MB-231 cells, 48 h): > 5000 nM

Compound: COc1cc2c(NC3CCN(C(C)C)CC3)nc(C3CCCCC3)nc2cc1OCCCN1CCCC1 [Compound 5, 2-Cyclohexyl-N-(1-isopropylpiperidin-4-yl)-6-methoxy-7-(3-(pyrrolidin-1-yl)propoxy)quinazolin-4-amine]
- IC50 ([1]; Homo sapiens, MDA-MB-231, 48 h, read-out: Cellular IC50 (Reduction of H3K9me2 (ICW))): 81 nM
- IC50 [1, 10]: ≤ 100 nM
- IC50 ([1]; Homo sapiens, MDA-MB-231, 48 h, read-out: ICW IC50): 81 nM
- EC50 [2]: 11000 nM
- IC50 [3]: 70 nM
- IC50 [4]: 59 nM
- IC50 [5]: 48 nM
- IC50 [6]: 210 nM
- EC50 [7]: 11000 nM
- EC50 [8]: 11000 nM

Compound: COc1cc2c(NC3CCN(C4CCCCC4)CC3)nc(N3CCCN(C(C)C)CC3)nc2cc1OCCCN1CCCCC1 [Compound 6, N-(1-cyclohexylpiperidin-4-yl)-2-(4-isopropyl-1,4-diazepan-1-yl)-6-methoxy-7-(3-(piperidin-1-yl)propoxy)quinazolin-4-amine]
- IC50 [1, 11]: < 60 nM

Compound: COc1cc2c(NC3CCN(CC4CCCCC4)CC3)nc(N3CCCN(C(C)C)CC3)nc2cc1OCCCN1CCCCC1 [Compound 7, N-(1-(cyclohexylmethyl)piperidin-4-yl)-2-(4-isopropyl-1,4-diazepan-1-yl)-6-methoxy-7-(3-(piperidin-1-yl)propoxy)quinazolin-4-amine]
- IC50 [1, 11]: < 60 nM

Compound: COc1cc2c(NC3CCN(C(C)C)CC3)nc(C3CCCCC3)nc2cc1OCCCN1CCCCC1 [Compound 24a, 2-Cyclohexyl-N-(1-isopropylpiperidin-4-yl)-6-methoxy-7-(3-(piperidin-1-yl)propoxy)quinazolin-4-amine]
- Fold lower potency in the G9a biochemical assay compared to compound 5 [9]: about 10 fold

Compound: COc1cc2c(NC3CCN(C(C)C)CC3)nc(N3CCCN(C(C)C)CC3)nc2cc1OCCCN1CCCCC1 [Compound 25, 2-(4-Isopropyl-1,4-diazepan-1-yl)-N-(1-isopropylpiperidin-4-yl)-6-methoxy-7-(3-(piperidin-1-yl)propoxy)quinazolin-4-amine]
- IC50 [1, 11]: < 60 nM

Compound: COc1cc2c(NC3CCN(C4CCCCC4)CC3)nc(N3CCCN(C)CC3)nc2cc1OCCCN1CCCCC1 [Compound 26, N-(1-cyclohexylpiperidin-4-yl)-6-methoxy-2-(4-methyl-1,4-diazepan-1-yl)-7-(3-(piperidin-1-yl)propoxy)quinazolin-4-amine]
- IC50 [1, 11]: < 60 nM

More lines, now with the values ahead:

- IC50 [1, 10]: ≤ 100 nM
- IC50 [1, 12]: 100 nM
Compound: COc1cc2c(NC3CCN(C(C)C)CC3)nc(N3CCCN(C4CCCCC4)CC3)nc2cc1OCCCN1CCCC1 [Compound 17d, 2-(4-Cyclohexyl-1,4-diazepan-1-yl)-N-(1-isopropylpiperidin-4-yl)-6-methoxy-7-(3-(pyrrolidin-1-yl)propoxy)quinazolin-4-amine]

- IC50 [1, 10]: ≤ 100 nM
Compound: COc1cc2c(NC3CCN(C(C)C)CC3)nc(N3CCCN(CC4CCCCC4)CC3)nc2cc1OCCCN1CCCC1 [Compound 17e, 2-(4-(Cyclohexylmethyl)-1,4-diazepan-1-yl)-N-(1-isopropylpiperidin-4-yl)-6-methoxy-7-(3-(pyrrolidin-1-yl)propoxy)quinazolin-4-amine]

- IC50 [1, 10]: ≤ 100 nM
Compound: COc1cc2c(NC3CCN(C(C)C)CC3)nc(N3CCCN(Cc4ccccc4)CC3)nc2cc1OCCCN1CCCC1 [Compound 17g, 2-(4-Benzyl-1,4-diazepan-1-yl)-N-(1-isopropylpiperidin-4-yl)-6-methoxy-7-(3-(pyrrolidin-1-yl)propoxy)quinazolin-4-amine]

- IC50 [1, 10]: ≤ 100 nM
- IC50 [1, 12]: 100 nM
Compound: COc1cc2c(NC3CCN(C(C)C)CC3)nc(N3CCCCCC3)nc2cc1OCCCN1CCCC1 [Compound 17i, 2-(Azepan-1-yl)-N-(1-isopropylpiperidin-4-yl)-6-methoxy-7-(3-(pyrrolidin-1-yl)propoxy)quinazolin-4-amine]

From article PMC3171737 (Journal of medicinal chemistry, 2011)
